Measurements: US20200261440A1, “ZINC IONOPHORES AND USES THEREOF” (THE UNIVERSITY OF QUEENSLAND, priority 2017, published 2020)
In brackets after ≈: the same amount, converted by molar mass. Entries after “also recorded” stand apart in the source; their conditions may differ. Read-outs that look alike come from different tables or passages of the source.

Experiments:
[1] = test system: Klebsiella pneumoniae strain MS6771; assay: MIC by broth microdilution (CLSI); type: cell-based; settings: for antibiotic sensitivity of resistant strain: Klebsiella pneumoniae MS6771, addition of sub-inhibitory PBT2+zinc(II) ions; for MIC: Klebsiella pneumoniae
[2] = test system: Vancomycin-resistant Enterococci (VRE) clinical isolate RBWH1; assay: MIC by broth microdilution (CLSI); type: cell-based, Enterococcus; settings: Enterococcus, VRE, read-out: MIC
Experimental: (§1) J. Path. Bact. […] Proc. Soc.
(§2) MIC assays were carried out in biological triplicates.
(§3) M100 Performance Standards for Antimicrobial Susceptibility Testing, 27th Edition.

[3] = test system: Methicillin-resistant Staphylococcus aureus (MRSA) strain USA300; assay: MIC by broth microdilution (CLSI); settings: for MIC: Staphylococcus aureus; for antibiotic sensitivity of resistant strain: addition of sub-inhibitory PBT2+zinc(II) ions
[4] = test system: GAS strain HKU16 (Streptococcus pyogenes strain HKU16); assay: microbe, parasite or virus in culture; type: cell-based; settings: GAS
Experimental: as §1, §2, §3

[5] = test system: Streptococcus pneumoniae 23F; assay: MIC by broth microdilution (CLSI); type: cell-based
[6] = MS6771, Klebsiella pneumoniae, CQ: 0 μM, Zinc: 0 μM, read-out: MIC
[7] = MS6771, Klebsiella pneumoniae, CQ: 64 μM, Zinc: 256 μM, read-out: MIC
[8] = MS6771, Klebsiella pneumoniae, CQ: 64 μM, read-out: MIC
[9] = MS6771, Klebsiella pneumoniae, PBT2: 0 μM, Zinc: 0 μM, read-out: MIC
[10] = MS6771, Klebsiella pneumoniae, PBT2: 64 μM, Zinc: 256 μM, read-out: MIC
[11] = MS6771, Klebsiella pneumoniae, PBT2: 64 μM, read-out: MIC
[12] = MS6771, Klebsiella pneumoniae, Zinc: 256 μM (CQ panel), read-out: MIC
[13] = MS6771, Klebsiella pneumoniae, Zinc: 256 μM (PBT2 panel), read-out: MIC
[14] = MRSA|USA300, MRSA, RA-HQ-12: 3.5 μM, oxacillin with 2% NaCl
[15] = MRSA|USA300, MRSA USA300, CQ: 0.75 μM, Zinc: 16 μM, +2% NaCl
[16] = MRSA|USA300, MRSA USA300, PBT2: 2 μM, Zinc: 25 μM, +2% NaCl

Compound	MIC [1, 6]	MIC [1, 7]	MIC [1, 8]	MIC [1, 9]	MIC [1, 10]	MIC [1, 11]	MIC [1, 12]	MIC [1, 13]	other results
NCC[C@H](O)C(=O)N[C@@H]1C[C@H](N)[C@@H](O[C@H]2O[C@H](CN)[C@@H](O)[C@H](O)[C@H]2O)[C@H](O)[C@H]1O[C@H]1O[C@H](CO)[C@@H](O)[C@H](N)[C@H]1O [Amikacin, amikacin]	> 128 mg/L	> 128 mg/L	> 128 mg/L	> 128 mg/L	> 128 mg/L	> 128 mg/L	> 128 mg/L	> 128 mg/L	antibiotic sensitivity of resistant strain [1]: not
CC[C@H]1OC(=O)[C@H](C)[C@@H](O[C@H]2C[C@@](C)(OC)[C@@H](O)[C@H](C)O2)[C@H](C)[C@@H](O[C@@H]2O[C@H](C)C[C@H](N(C)C)[C@H]2O)[C@](C)(O)C[C@@H](C)CN(C)[C@H](C)[C@@H](O)[C@]1(C)O [Azithromycin, azithromycin]	–	–	–	–	–	–	–	–	MIC ([1]; MS6771, K. pneumoniae, RA-HQ-12: 0 μM, Zn: 0 μM, read-out: MIC): 32 mg/L (≈ 42.7 µM); MIC ([1]; MS6771, K. pneumoniae, RA-HQ-12: 16 μM, Zn: 64 μM, read-out: MIC): 32 mg/L (≈ 42.7 µM); MIC ([1]; MS6771, K. pneumoniae, RA-HQ-12: 16 μM, read-out: MIC): 32 mg/L (≈ 42.7 µM); MIC ([1]; MS6771, K. pneumoniae, Zn: 64 μM, read-out: MIC): 32 mg/L (≈ 42.7 µM); MIC ([2]; RA-HQ-12: 3.5 μM, Zn: […]): > 128 mg/L; MIC ([2]; RA-HQ-12: 3.5 μM): > 128 mg/L; MIC ([2]; Zn: […] (RA-HQ-12 panel)): > 128 mg/L; MIC ([2]; RA-HQ-12: 0 μM, Zn: 0 μM): > 128 mg/L; MIC [3]: 128 mg/L (≈ 171 µM); MIC ([3]; MRSA|USA300, MRSA, RA-HQ-12: 3.5 μM, Zn: […], oxacillin with 2% NaCl): 32 mg/L (≈ 42.7 µM); MIC [3, 14]: 64 mg/L (≈ 85.4 µM); MIC ([4]; Streptococcus pyogenes, RA-HQ-12: 0 μM, Zn: 0 μM, read-out: MIC): > 128 mg/L
CO[C@@]1(NC(=O)Cc2cccs2)C(=O)N2C(C(=O)O)=C(COC(N)=O)CS[C@@H]21 [Cefoxitin, cefoxitin]	128 mg/L (≈ 299 µM)	64 mg/L (≈ 150 µM)	64 mg/L (≈ 150 µM)	128 mg/L (≈ 299 µM)	64 mg/L (≈ 150 µM)	64 mg/L (≈ 150 µM)	128 mg/L (≈ 299 µM)	128 mg/L (≈ 299 µM)	–
CCO/N=C(\C(=O)N[C@@H]1C(=O)N2C(C(=O)[O-])=C(Sc3nc(-c4cc[n+](C)cc4)cs3)CS[C@H]12)c1nsc(N)n1 [Ceftaroline]	> 128 mg/L	> 128 mg/L	> 128 mg/L	> 128 mg/L	> 128 mg/L	> 128 mg/L	> 128 mg/L	> 128 mg/L	–
CC(C)(O/N=C(\C(=O)N[C@@H]1C(=O)N2C(C(=O)[O-])=C(C[n+]3ccccc3)CS[C@H]12)c1csc(N)n1)C(=O)O [Ceftazidime, ceftazidime]	32 mg/L (≈ 58.5 µM)	16 mg/L (≈ 29.3 µM)	16 mg/L (≈ 29.3 µM)	32 mg/L (≈ 58.5 µM)	32 mg/L (≈ 58.5 µM)	32 mg/L (≈ 58.5 µM)	32 mg/L (≈ 58.5 µM)	32 mg/L (≈ 58.5 µM)	–
O=C(N[C@H](CO)[C@H](O)c1ccc([N+](=O)[O-])cc1)C(Cl)Cl [Chloramphenicol, chloramphenicol]	128 mg/L (≈ 396 µM)	64 mg/L (≈ 198 µM)	64 mg/L (≈ 198 µM)	128 mg/L (≈ 396 µM)	128 mg/L (≈ 396 µM)	128 mg/L (≈ 396 µM)	128 mg/L (≈ 396 µM)	128 mg/L (≈ 396 µM)	MIC ([5]; Streptococcus pneumoniae, 23F, PBT2: 0 μM, Zinc: 0 μM, read-out: MIC): 16 mg/L (≈ 49.5 µM); MIC ([5]; Streptococcus pneumoniae, 23F, PBT2: 8 μM, Zinc: 32 μM, read-out: MIC): 2 mg/L (≈ 6.19 µM); MIC ([5]; Streptococcus pneumoniae, 23F, PBT2: 8 μM, read-out: MIC): 16 mg/L (≈ 49.5 µM); MIC ([5]; Streptococcus pneumoniae, 23F, Zinc: 32 μM, read-out: MIC): 16 mg/L (≈ 49.5 µM); antibiotic sensitivity of resistant strain ([5]; addition of sub-inhibitory PBT2+zinc(II) ions): became sensitive
C[C@H]1c2cccc(O)c2C(=O)C2=C(O)[C@]3(O)C(=O)C(C(N)=O)=C(O)[C@@H](N(C)C)[C@@H]3[C@@H](O)[C@@H]21 [Doxycycline, doxycycline]	8 to 16 mg/L (≈ 18 to 36 µM)	8 mg/L (≈ 18 µM)	8 mg/L (≈ 18 µM)	8 to 16 mg/L (≈ 18 to 36 µM)	4 mg/L (≈ 9 µM)	4 to 8 mg/L (≈ 9 to 18 µM)	8 to 16 mg/L (≈ 18 to 36 µM)	8 to 16 mg/L (≈ 18 to 36 µM)	–
CC[C@H]1OC(=O)[C@H](C)[C@@H](O[C@H]2C[C@@](C)(OC)[C@@H](O)[C@H](C)O2)[C@H](C)[C@@H](O[C@@H]2O[C@H](C)C[C@H](N(C)C)[C@H]2O)[C@](C)(O)C[C@@H](C)C(=O)[C@H](C)[C@@H](O)[C@]1(C)O [Erythromycin, erythromycin]	–	–	–	–	–	–	–	–	antibiotic sensitivity of resistant strain ([3]; MRSA USA300): became sensitive; also recorded: reversed; MIC ([3]; MRSA USA300, CQ: 0 μM, Zinc: 0 μM): 64 mg/L (≈ 87.2 µM); MIC ([3]; MRSA USA300, CQ: 1 μM): 64 mg/L (≈ 87.2 µM); MIC ([3]; MRSA USA300, CQ: 1 μM, Zinc: 32 μM): 1 mg/L (≈ 1.36 µM); MIC ([3]; MRSA USA300, PBT2: 0 μM, Zinc: 0 μM): 64 mg/L (≈ 87.2 µM); MIC ([3]; MRSA USA300, PBT2: 2 μM): 32 mg/L (≈ 43.6 µM); MIC ([3]; MRSA USA300, PBT2: 2 μM, Zinc: 50 μM): 0.5 mg/L (≈ 0.681 µM); MIC ([3]; MRSA USA300, Zinc: 32 μM): 64 mg/L (≈ 87.2 µM); MIC ([3]; MRSA USA300, Zinc: 50 μM): 64 mg/L (≈ 87.2 µM); MIC [3, 14]: 64 mg/L (≈ 87.2 µM)
C[C@@H](O)[C@H]1C(=O)N2C(C(=O)O)=C(S[C@@H]3CN[C@H](C(=O)N(C)C)C3)[C@H](C)[C@H]12 [Meropenem, meropenem]	64 mg/L (≈ 167 µM)	8 to 16 mg/L (≈ 20.9 to 41.7 µM)	8 to 16 mg/L (≈ 20.9 to 41.7 µM)	64 mg/L (≈ 167 µM)	16 mg/L (≈ 41.7 µM)	32 mg/L (≈ 83.4 µM)	16 to 32 mg/L (≈ 41.7 to 83.4 µM)	16 to 32 mg/L (≈ 41.7 to 83.4 µM)	–
COc1cccc(OC)c1C(=O)N[C@@H]1C(=O)N2[C@@H]1SC(C)(C)[C@@H]2C(=O)O [Methicillin, methicillin]	–	–	–	–	–	–	–	–	MIC ([3]; MRSA USA300, CQ: 0 μM, Zinc: 0 μM, +2% NaCl): > 128 mg/L; MIC ([3]; MRSA USA300, CQ: 0.75 μM, +2% NaCl): > 128 mg/L; MIC ([3]; MRSA USA300, PBT2: 2 μM, +2% NaCl): > 128 mg/L; MIC ([3]; MRSA USA300, Zinc: 16 μM, +2% NaCl): > 128 mg/L; MIC ([3]; MRSA USA300, Zinc: 25 μM, +2% NaCl): > 128 mg/L; MIC [3, 15]: > 128 mg/L; MIC ([3]; MRSA|USA300, MRSA USA300, PBT2: 0 μM, Zinc: 0 μM, +2% NaCl): > 128 mg/L; MIC [3, 16]: > 128 mg/L
Cc1onc(-c2ccccc2)c1C(=O)N[C@@H]1C(=O)N2[C@@H]1SC(C)(C)[C@@H]2C(=O)O [Oxacillin, oxacillin]	–	–	–	–	–	–	–	–	antibiotic sensitivity of resistant strain ([3]; MRSA USA300): became sensitive; MIC [3, 15]: 0.5 to 1 mg/L (≈ 1.25 to 2.49 µM); MIC [3, 16]: 1 to 2 mg/L (≈ 2.49 to 4.98 µM); MIC ([4]; RA-HQ-12: 3.5 μM): 0.125 mg/L (≈ 0.311 µM)
CN(C)c1cc(NC(=O)CNC(C)(C)C)c(O)c2c1C[C@H]1C[C@H]3[C@H](N(C)C)C(O)=C(C(N)=O)C(=O)[C@@]3(O)C(O)=C1C2=O [Tigecycline, tigecycline]	–	–	–	–	–	–	–	–	antibiotic sensitivity of resistant strain [1]: became sensitive; MIC ([1]; MS6771, Klebsiella pneumoniae, CQ: 0 μM, Zinc: 0 μM): 4 mg/L (≈ 6.83 µM); MIC ([1]; MS6771, Klebsiella pneumoniae, CQ: 64 μM): 4 mg/L (≈ 6.83 µM); MIC ([1]; MS6771, Klebsiella pneumoniae, CQ: 64 μM, Zinc: 256 μM): 4 mg/L (≈ 6.83 µM); MIC ([1]; MS6771, Klebsiella pneumoniae, PBT2: 0 μM, Zinc: 0 μM): 4 mg/L (≈ 6.83 µM); MIC ([1]; MS6771, Klebsiella pneumoniae, PBT2: 64 μM): 2 mg/L (≈ 3.41 µM); MIC ([1]; MS6771, Klebsiella pneumoniae, PBT2: 64 μM, Zinc: 256 μM): 2 mg/L (≈ 3.41 µM); MIC ([1]; MS6771, Klebsiella pneumoniae, Zinc: 256 μM (CQ panel)): 4 mg/L (≈ 6.83 µM); MIC ([1]; MS6771, Klebsiella pneumoniae, Zinc: 256 μM (PBT2 panel)): 4 mg/L (≈ 6.83 µM)
COc1cc(Cc2cnc(N)nc2N)cc(OC)c1OC [Trimethoprim, trimethoprim]	> 128 mg/L	> 128 mg/L	> 128 mg/L	> 128 mg/L	> 128 mg/L	> 128 mg/L	> 128 mg/L	> 128 mg/L	–
gentamicin	–	–	–	–	–	–	–	–	MIC ([5]; PBT2: 0 μM, Zinc: 0 μM): 64 mg/L; MIC ([5]; PBT2: 8 μM): 4 mg/L; MIC ([5]; PBT2: 8 μM, Zinc: 32 μM): 1 mg/L; MIC ([5]; Zinc: 32 μM): 64 mg/L
